The values that follow come from patent US20260085101A1, “NOVEL PLATELET DERIVED GROWTH FACTOR PEPTIDE MIMETIC” (THE UNIVERSITY OF SYDNEY, priority 2022, published 2026).

Holding throughout (type): cell-based
Experiment [1] has as its system C2C12 mouse myoblasts. In words: Scratch migration (chemotaxis) assay on C2C12 cells. The conditions noted are these: for migration of cells across the scratch: 24 hours at 37° C., 10 ng/ml PDGF, 1 μg/ml peptides, mean (±SD); for increase in migration compared to the negative control (Mean Diff) / increase in migration compared to the no treatment control (Mean Diff.): 24 hours; for increase in migration compared to the negative control (Mean Diff): vs AG1296+PDGF−AB negative control; for increase in migration compared to the no treatment control (Mean Diff.): vs no treatment control. On the procedure: FIG. 2. Migration of C2C12 Mouse […] Cells Treated with PDGF and peptides JC5 and JC5a. C2C12 mouse fibroblast cells migrate across the scratch over 24 hours. Cells were treated with 10 ng/ml PDGF−AB (n=6), PDGF−BB (n=6), and 1 μg/ml of novel PDGF mimetic JC5 (n=6) and JC5a (n=3). […] There was also no statistically significant difference between the PDGF mimetic peptides and PDGF−AB and −BB positive controls. Error bars represent ±SD. The function of Compounds Ia (also referred to herein as JC5) and Ib (also referred to herein as JC5a) has been tested in vitro on the continuous cell line, C2C12 mouse myoblasts. In these in vitro assays recombinant PDGF−AB and −BB have been used as positive controls along with a serum starved no treatment control and the PDGF receptor inhibitor AG1296 co-treated with PDGF−AB as a negative control. The in vitro assays were designed to assess the major known functions of PDGF whilst also considering functions that are relevant to its in vivo applications. These functions were chemotaxis, collagen contraction, vascular tube formation and activation of the PDGF receptors via phosphorylation of Akt and Erk. Chemotaxis was assessed by making a scratch through a 2D culture of C2C12 cells following treatment with the four controls and the peptides JC5 and JC5a. They were then incubated for 24 hours at 37° C. Migration of the cells across the scratch at the conclusion of the incubation was measured and compared to the relevant controls described above. PDGF is a well-established mediator of chemotaxis and is expected to increase migration of the cells across the scratch over the course of 24 hours post treatment.

Experiment [2] has as its system C2C12 mouse myoblasts. In words: Collagen gel contraction assay with C2C12 cells. The conditions noted are these: for collagen gel contracted to % of its initial surface area: 24-hour incubation, 10 ng/ml PDGF, 1 μg/ml peptides, 10 μM AG1296, mean (±SD); for difference in collagen gel area versus negative control AG1296 co-treated with PDGF−AB (Mean Diff.) / difference in collagen gel area versus no treatment control (Mean Diff.): 24 hours; for difference in collagen gel area versus negative control AG1296 co-treated with PDGF−AB (Mean Diff.): vs negative control (55.25%); for difference in collagen gel area versus no treatment control (Mean Diff.): vs no treatment control (41.27%). An excerpt: FIG. 3. Collagen Contraction of C2C12 Mouse Fibroblasts Treated with PDGF and peptides JC5 and JC5a. […] Error bars represent ±SD, n=8/4. The function of Compounds Ia (also referred to herein as JC5) and Ib (also referred to herein as JC5a) has been tested in vitro on the continuous cell line, C2C12 mouse myoblasts. In these in vitro assays recombinant PDGF−AB and −BB have been used as positive controls along with a serum starved no treatment control and the PDGF receptor inhibitor AG1296 co-treated with PDGF−AB as a negative control. The in vitro assays were designed to assess the major known functions of PDGF whilst also considering functions that are relevant to its in vivo applications. These functions were chemotaxis, collagen contraction, vascular tube formation and activation of the PDGF receptors via phosphorylation of Akt and Erk. Collagen contraction is an important function during wound healing of many tissues including the heart. This can be simulated in vitro using a collagen gel contraction assay. This was assessed using C2C12 cells treated with the positive controls 10 ng/ml recombinant PDGF-BB and PDGF−AB, negative control 10 μM AG1296 co-treated with 10 ng/ml recombinant PDGF−AB, a serum starved no treatment control and 1 μg/ml of the peptides JC5 and JC5a. C2C12 mouse myoblasts were seeded in a 3D collagen gel crosslinked with NaOH and incubated at 37° C. for 24 hours following treatment with the four controls and peptides JC5 and JC5a.

The subject of experiment [3] is primary human coronary artery endothelial cells (HCAECs). In words: Vascular tube forming assay on Geltrex. The conditions noted are these: 24 hours; for tube length: 50 ng/ml PDGF, 5 μg/ml JC5, 10 μM AG1296, mean (±SD); for increased tube length compared to the negative control (Mean Diff.): vs AG1296+PDGF−AB (307.7 μm); for increased tube length compared to the no treatment control (Mean Diff.): vs no treatment control (305 μm). On the procedure:
FIG. 4. Tube formation of Human Coronary Artery Endothelial Cells Treated with PDGF and PDGF Mimetic Peptide JC5. Human coronary artery endothelial cells treated with 50 ng/ml of PDGF−AB and PDGF−BB produced longer tubes than untreated cells and cells treated with the PDGF receptor inhibitor AG1296+PDGF−AB. […] Error bars represent ±SD, n=3/group.
PDGF has a well-established role in angiogenesis in vivo. To simulate this function in vitro a vascular tube forming assay on primary human coronary artery endothelial cells (HCAECs) was carried out. Cells were seeded on top of 3D growth factor reduced Geltrex basement membrane extract and incubated for 24 hours following treatment with the PDGF−AB, PDGF-BB, no treatment control, AG1296+PDGF−AB negative control, and peptides JC5 and JC5a. Over the course of 24 hours the cells form tubes throughout the gel. PDGF is reported to facilitate tube formation of endothelial cells in in vitro 3D assays.
Cells treated with 50 ng/ml of PDGF−AB, PDGF-BB, and 5 μg/ml of JC5 produced longer more uniform tubes than untreated cells and cells treated with the negative control 10 μM PDGF receptor inhibitor AG1296 co-treated with 50 ng/ml PDGF−AB (FIG. 4). The positive controls PDGF−AB and PDGF−BB produced tubes that were 560.7 μm (±53.93) and 616.3 μm (±39.07), respectively. […] The no treatment control and AG1296+PDGF−AB negative control produced tubes that were 305 μm and 307.7 μm, respectively. […] In summary, JC5 has similar vascular tube forming ability to recombinant human PDGF−AB and PDGF-BB.

In the case of `CCCCCCCCCCCCCCCC(=O)NCCCC[C@H](NC(=O)[C@H](CCC(=O)O)NC(=O)[C@H](Cc1ccc(O)cc1)NC(=O)[C@@H](CCC(=O)O)NC(=O)CCOCCOCCOCCNC(=O)CCOCCOCCOCCNC(=O)[C@@H](CCCCN)NC(=O)[C@@H](CCCCN)NC(=O)[C@@H](CCCNC(=N)N)NC(=O)[C@@H](NC(=O)[C@@H](NC(=O)[C@H](CCC(=O)O)NC(=O)[C@@H](NC(=O)[C@H](CCCCN)NC(=O)[C@@H](CCCNC(=N)N)NC(=O)[C@H](NC(=O)[C@H](N)CSSC[C@@H](N)C(=O)N[C@@H](C(=O)N[C@H](CCCNC(=N)N)C(=O)N[C@@H](CCCCN)C(=O)N[C@H](C(=O)N[C@@H](CCC(=O)O)C(=O)N[C@H](C(=O)N[C@H](C(=O)N[C@H](CCCNC(=N)N)C(=O)N[C@H](CCCCN)C(=O)N[C@H](CCCCN)C(=O)NCCOCCOCCOCCC(=O)NCCOCCOCCOCCC(=O)N[C@H](CCC(=O)O)C(=O)N[C@@H](Cc1ccc(O)cc1)C(=O)N[C@@H](CCC(=O)O)C(=O)N[C@@H](CCCCNC(=O)CCCCCCCCCCCCCCC)C(=O)N[C@@H](CCC(=O)O)C(=O)N[C@@H](Cc1ccc(O)cc1)C(=O)N[C@@H](CCC(=O)O)C(N)=O)C(C)C)[C@H](C)CC)[C@@H](C)CC)C(C)C)C(C)C)[C@@H](C)CC)[C@H](C)CC)C(C)C)C(=O)N[C@@H](CCC(=O)O)C(=O)N[C@@H](Cc1ccc(O)cc1)C(=O)N[C@@H](CCC(=O)O)C(N)=O` [JC5a, PDGF Loop III dimer USA dimer (CVRKIEIVRKK)2(Peg3)2(EYEK(Palm)EYE)2-C′], in experiment [1], the “migration of cells across the scratch” value was 79.88%, the “increase in migration compared to the negative control (Mean Diff)” value came to 62.71% and the “increase in migration compared to the no treatment control (Mean Diff.)” value turned out to be 59.56%. Besides, in experiment [2], the “collagen gel contracted to % of its initial surface area” value (from here on “collagen gel contracted to %”) came to 33.28% and the “difference in collagen gel area versus negative control AG1296 co-treated with PDGF−AB (Mean Diff.)” value (“difference … with PDGF−AB (Mean Diff.)” for short) is reported as 21.96%.
Consider “PDGF Loop III dimer HSA (CVRKIEIVRKK)2(Peg3)2EYEK(Palm)EYE-C′ [JC5]”, for which, in experiment [1], the “migration of cells across the scratch” value was 68.28%, the “increase in migration compared to the negative control (Mean Diff)” value worked out at 51.71% and the “increase in migration compared to the no treatment control (Mean Diff.)” value worked out at 47.96%. Besides, in experiment [2], the “collagen gel contracted to %” value turned out to be 23.01%, the “difference … with PDGF−AB (Mean Diff.)” value worked out at 32.23% and the “difference in collagen gel area versus no treatment control (Mean Diff.)” value stood at 18.26%. Further, in experiment [3], the tube length worked out at 591.3 μm, the “increased tube length compared to the negative control (Mean Diff.)” value was 283.7 μm and the “increased tube length compared to the no treatment control (Mean Diff.)” value is on record as 286.3 μm.
Take “PDGF−AB: recombinant human PDGF−AB, AB heterodimer of recombinant PDGF, positive control”: in experiment [2], the “collagen gel contracted to %” value worked out at 22.46%, the “difference … with PDGF−AB (Mean Diff.)” value was found to be 32.79% and the “difference in collagen gel area versus no treatment control (Mean Diff.)” value is listed as 18.82%. In addition, in experiment [3], the tube length is recorded as 560.7 μm, the “increased tube length compared to the negative control (Mean Diff.)” value stood at 253 μm and the “increased tube length compared to the no treatment control (Mean Diff.)” value is given as 255.7 μm.
